Laboratory results published in patent EP0108147B1, “Use of a protoberberine alkaloid and composition containing same” (MAROKO, Peter R., priority 1982, dated 1983).
Where two headings read alike, the source gives them in different places.

What was measured:
dogs = assay: Myocardial oxygen consumption (MV02) and epicardial ST segment elevation experiments; type: in vivo; settings: for myocardial oxygen consumption and myocardial injury: dogs, varying dosages
Text: These changes were due to lower. myocardial oxygen consumption during the occlusion with berberine treatment. […] This is quite an advanageous therapeutic combination of properties which further distinguish the compounds used in the invention from the conventional drugs.

[1] = tested on: closed-chest anesthetized dogs; settings: for change of diastolic pressure: berberine in addition to digitalis; for antiarrhythmic and antiarrhythmogenic result in the ouabain experiment: dog, in vivo
Experimental: A study was carried out to examine the effects of the simultaneous administration of berberine on digitalis (i.e. ouabain) produced arrhythmias.
The experiments were conducted in closed-chest anesthetized dogs which were randomized to three groups. All received ouabain 0.03 mg/Kg as a bolus intravenously and thereafter a continuous infusion with a constant rate of 0.0006 mg/Kg/min until death. […] The second group received simultaneously berberine 1 mg/Kg intravenously as a bolus and then 0.2 mg/Kg/min as a continous infusion. The third group received berberine only after the appearance of VEA in a frequency of 50% of more of all systoles.
Moreover, the effects of intravenous bolus injection of berberine (0.4 to 1 mg/Kg) was studied (in comparison to dextrose 5% injection).

closed-chest dogs = assay: Protocol TE: electrophysiologic properties in closed-chest dogs; type: in vivo; settings: for result when substituted in the electrophysiologic experiments: dog, in vivo
Experimental: Experiments were carried out to analyze the electrophysiologic properties of berberine (portocol TE). In this protocol closed-chest dogs were anesthetized with intravenous pentobarbital (30 mg/Kg). Electrode catheters were placed, under fluoroscopy, in the high right atrium, right venticle, and in the aorta near the non-coronary aortic cusp to record His bundle potential. In addition aortic pressure (Statham gauge) and surface ECG were obtained. All parameters were recorded on an Electronic for Medicine polygraph (Model DR 8), with a paper speed of 100 mm/sec. The recordings were obtained before berberine treatment and after five successive five minute infusions of 0.2 mg/Kg/min of berberine in each one of the dogs. At each one of these time intervals recordings were done with the "spontaneous" normal sinus rhythm and with atrial and ventricular extrastimuli were given during the normal sinus as well as during the pacing phases of the experiment to determine the refractory period of the artria, atrio-ventricular node and of the His-Purkinje system and ventricle. Moreover, sinus node recovery time was measured.

[2] = tested on: healthy adult mongrel dogs; assay: Protocol M: hemodynamics in anesthetized open-chest dogs, systolic arterial pressure held constant; type: in vivo
Experimental: The experimental work was carried out as follows: Twelve healthy adult mongrel dogs (20-30 kg) of both sexes were anesthetized with intravenous sodium pentobarbital (25 mg/kg). A left thoractomy was performed through the fifth intercostal space. Catheters were placed to record left atrial, left ventricular and aortic pressures. Descending aortic blood flow was measured with an electromagnetic flowmeter. Heart rate (HR) was calculated using electocardiographic recording, lead aVF. All parameters were recorded on a Gould polygraph. The dogs were randomly assigned either to the control or to the treated group. Six of the dogs were in the control group and these dogs were infused with a placebo, namely the vehicle used for the drug tested. […] Berberine (as the hydrochloride salt) was administered to six anesthesized dogs (barbiturate). The dose was 0.7 mg/kg/min. intravenously infused durng 5 minutes. This dose was repeated after 45 minutes. Systolic arterial pressure was maintained at a constant rate using a reservoir full of blood under constant pressure connected to the femoral artery. Whenever the arterial pressure was not maintained constant in the work reported (and allowed to drop) appropriate reference is made herein to that fact. Systemic arterial pressure was maintained at a constant rate in order to obtain accurate dP/dt since this parameter is of extreme importance in these studies. However, as a consequence, the vascular peripheral resistence, when described as a function of mean aortic pressure, was higher than if the pressure would be allowed to fall with the administration of the compound. Therefore, the reduction calculated total peripheral resistence is underestimated. Also dP/dt is less increased when bradycardia (lower heart rate) occurs and since heart rate was allowed to fall (which is the effect of the drug), the increase in dP/dt reported here is actually underestimated as compared to preparations in which heart rate would have been maintained constant. In Tables I to IX the results of these experiments are presented. The first two lines presents the studied parameter in absolute values, the third line representing the "t" values used in Student's t test for group observation, between the treated and control groups. The fourth line presents the level of significance. The next four lines give the values as changes (Δ) from the value before treatment to the value after treatment. The third set of values represent the changes in percent. The last two sets of two lines represent the paired t-test values and the derived p values obtained by analyzing the data from before the infusion of the drug (last set of two lines) or the placebo (next to last set of two lines), in the subsequent time interval (i.e. after infusion). Therefore, each dog serves as his own control, thus increasing the statistical value of the tests. […] Thus, the calculated peripheral resistance increased by 18% (P <0.02).

[3] = tested on: anesthetized closed chest dogs; assay: Association of ouabain and berberine on contractility (LV dP/dt), constant systolic pressure; type: in vivo; settings: for increase of LV dP/dt, of the initial LV dP/dt: berberine 0.7 mg/Kg/min after ouabain; for increases in dP/dt: only berberine 0.7 mg/Kg/min without digitalis
Experimental: In anesthetized closed chest dogs the systolic arterial pressure was maintained constant with a reservoir full of heparinized blood (as in protocol "M" and "Z" described above) and a "pigtail" and Millar catheter were introduced into the left ventricular cavity (as in protocol "Z" and "HV", described above). All data was recorded on 8 channel polygraph (Gould Instruments) with a paper speed of 200 mm/s when necessary and at 2 mm/s constantly.

[4] = berberine started after the appearance of 50% of VEA
[5] = five successive five minute infusions of 0.2 mg/Kg/min

SMILES: COc1ccc2cc3[n+](cc2c1OC)CCc1cc2c(cc1-3)OCO2 [berberine]
- epicardial ST segment elevations (dogs; after coronary artery occlusion): did not change them
- myocardial injury (epicardial ST segment elevations) (dogs; consecutive occlusions, 0.2 mg/kg/min, vs control occlusion, pilot experiments): less myocardial injury
- myocardial oxygen consumption (dogs; dogs with acute left ventricular failure, effect greater than that of ouabain): significantly reduced
- myocardial oxygen consumption (dogs; dogs without coronary artery occlusion): reduction in myocardial oxygen consumption
- mycardial oxygen consumption (MV02) (dogs; non-failing heart, 0.02 mg/kg.min): did not change
- occurrence of any arrhythmias (VEA more than 25%, VT or death) ([1]; after 60 minutes, all sixteen controls had): three had arrhythmias and six did not
- occurrence of any arrhythmias (VEA more than 25%, VT or death) ([1]; after 90 minutes, all controls had): four had arrhythmias and five did not
- occurrence of any arrhythmias (VEA more than 25%, VT or death) ([1]; at 30 minutes, control twelve had, four did not): one had arrhythmia and eight did not
- occurrence of any arrhythmias (VEA more than 25%, VT or death) ([1]; at 45 minutes, control fourteen had, two did not): three had arrhythmias and six had not
- change of diastolic pressure ([1]; 10 minutes): -9±5%
- change of diastolic pressure ([1]; 20 minutes): -13±9%
- change of diastolic pressure ([1]; 30 minutes): -13±10%
- change of diastolic pressure ([1]; 60 minutes): -20±11%
- amount of ouabain that provoked VT [1, 4]: 0.080 mg/kg
- delay of the appearance of sustained VT [1, 4]: more than 250%
- time of appearance of sustained VT ([1]; berberine started after the appearance of 50% of VEA, control 30.1±6.5): 84.5 ± 13.8 min
- dose of ouabain to provoke VT ([1]; berberine treated dogs (simultaneous)): 0.088 mg/kg
- injections effective in reverting VT into sinus rhythm within five minutes ([1]; intravenous bolus 0.4 to 1 mg/Kg, placebo none of twelve): 30 out of 41
- time of appearance of 25% of VEA ([1]; ouabain infusion + simultaneous berberine 1 mg/Kg bolus then 0.2 mg/Kg/min, controls 22±4.7): 66.5 ± 14.6 min
- prolongation of the time of appearance of VEA and VT ([1]; simultaneous berberine): around 300%
- time of appearance of 50% of VEA ([1]; simultaneous berberine, controls 23.9±4.7): 66.7 ± 15.3 min
- time of appearance of VT ([1]; simultaneous berberine, controls 30.1±6.5): 96.1 ± 15.1 min
- ventricular fibrillation ([1]; two berberine dogs): ventricular fibrillation reverted without any other therapy
- A-H, H-V and QRS intervals (closed-chest dogs; [5]): did not change
- Sinus node recovery (closed-chest dogs; [5]): did not change
- artrial refractory period (closed-chest dogs; [5]): did not change
- change of QTc (closed-chest dogs; [5]): 13%
- decrease of heart rate (closed-chest dogs; [5]): 8%
- increase of ventricular effective refractory period (closed-chest dogs; [5]): 11%
- diastolic aortic pressure (DAP) ([2]; after treatment, from 84 before): 62 mmHg
- increase in peak blood flow velocity ([2]; descending aorta): ~50%
- arrhythmias during the experimental period ([2]; dog, in vivo): did not develop any type of arrhythmias
- drop of DAP ([2]; dog, in vivo): 20 mmHg
- reduction in HR ([2]; dog, in vivo): 9 beats/min
- difference in dP/dt between the control group and the berberine-treated group ([2]; end of experiment): 50%
- dP/dt maximum of the left ventrical ([2]; end of experiment, 0.7 mg/kg/min i.v. 5 min, repeated after 45 min, control 2009 ± 132): 2974 ± 121 mmHg/s
- increase in the acceleration of blood flow (dF/dt) ([2]; first vs last column of Table III): ~65%
- mean left artrial pressure (LAP) ([2]; initial 1 or 2 mmHg): no change
- left ventricular end diastolic pressure (LVEDP) ([2]; normal, averaging 3 mmHg): no change
- increase of dF/dt ([2]; summary statement): at least 50%
- increase of dP/dt ([2]; summary statement): at least 50%
- increase of LV dP/dt, of the initial LV dP/dt ([3]; 5 minutes): 87±10%
- increase of LV dP/dt, of the initial LV dP/dt ([3]; 10 minutes): 82±13%
- increase of LV dP/dt, of the initial LV dP/dt ([3]; 15 minutes): 87±13%
- increase of LV dP/dt, of the initial LV dP/dt ([3]; 20 minutes): 95±16%
- increase of LV dP/dt, of the initial LV dP/dt ([3]; 25 minutes): 96±16%
- increase of LV dP/dt, of the initial LV dP/dt ([3]; 30 minutes): 94±14%
- combined effect with ouabain on contractility ([3]; dog, in vivo): more than additive but synergistic
- increases in dP/dt ([3]; 5 minutes): 30±4%
- increases in dP/dt ([3]; 10 minutes): 36±3%
- increases in dP/dt ([3]; 15 minutes): 39±3%
- increases in dP/dt ([3]; 20 minutes): 42±5%
- increases in dP/dt ([3]; 25 minutes): 39±5%
- increases in dP/dt ([3]; 30 minutes): 40±7%

SMILES: COc1ccc2cc3[n+](cc2c1O)CCc1cc2c(cc1-3)OCO2 [berberrubine]
- myocardial oxygen consumption and myocardial injury (dogs): reduction on myocardial oxygen consumption and less myocardial injury than the control
- antiarrhythmic and antiarrhythmogenic result in the ouabain experiment [1]: satisfactory results
- result when substituted in the electrophysiologic experiments (closed-chest dogs): likewise
- result of the corresponding Protocol M experiments (dP/dt, peak blood flow, acceleration of flow, heart rate, diastolic pressure) ([2]; dog, in vivo): like results are obtained
- result in the association with ouabain ([3]; dog, in vivo): perform in the same manner

SMILES: COc1cc2c(cc1O)C[C@H]1c3cc(O)c(OC)cc3CCN1C2 [coreximine]
- myocardial oxygen consumption and myocardial injury (dogs): reduction on myocardial oxygen consumption and less myocardial injury than the control
- antiarrhythmic and antiarrhythmogenic result in the ouabain experiment [1]: satisfactory results
- result when substituted in the electrophysiologic experiments (closed-chest dogs): comparable results are shown
- result of the corresponding Protocol M experiments (dP/dt, peak blood flow, acceleration of flow, heart rate, diastolic pressure) ([2]; dog, in vivo): like results are obtained
- result in the association with ouabain ([3]; dog, in vivo): perform in the same manner
